Where “and” joins values, the source holds several entries; their conditions need not be identical. Equal values may be shown once.
Key:
Pol Eta = target: T1, Pol Eta (Homo sapiens, UniProt Q9Y253); assay: Primer extension by recombinant Pols (selectivity); assay type: biochemical
T1 sequence (Q9Y253 1-713): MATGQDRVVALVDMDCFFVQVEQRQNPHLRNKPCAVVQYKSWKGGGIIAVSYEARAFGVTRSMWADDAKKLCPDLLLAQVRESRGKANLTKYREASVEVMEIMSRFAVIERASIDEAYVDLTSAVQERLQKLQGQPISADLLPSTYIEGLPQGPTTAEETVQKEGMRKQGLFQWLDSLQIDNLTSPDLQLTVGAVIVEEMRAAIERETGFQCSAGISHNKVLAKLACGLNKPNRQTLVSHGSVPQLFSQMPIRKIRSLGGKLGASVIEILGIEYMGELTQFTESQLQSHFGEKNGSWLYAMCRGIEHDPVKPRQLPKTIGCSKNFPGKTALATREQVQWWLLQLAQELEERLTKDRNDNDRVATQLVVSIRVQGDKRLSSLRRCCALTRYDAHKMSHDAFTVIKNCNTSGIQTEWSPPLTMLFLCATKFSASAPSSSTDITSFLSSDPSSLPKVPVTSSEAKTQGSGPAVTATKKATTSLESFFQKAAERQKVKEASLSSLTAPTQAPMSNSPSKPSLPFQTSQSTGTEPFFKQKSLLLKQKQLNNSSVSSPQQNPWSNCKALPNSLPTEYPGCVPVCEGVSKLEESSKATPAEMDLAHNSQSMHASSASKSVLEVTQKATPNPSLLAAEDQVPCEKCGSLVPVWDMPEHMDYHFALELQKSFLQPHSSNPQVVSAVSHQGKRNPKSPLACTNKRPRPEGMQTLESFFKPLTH

Polθ-pol on DNA/RNA = target: T2, Polθ-pol on DNA/RNA (Homo sapiens, UniProt O75417); assay: Relative rate of ddCMP addition on DNA/RNA; assay type: biochemical; settings: for Average % Extension (Single nt) / % Extension (Single nt) / % Extension of Control: RNA template; for Average % Extension (Single nt) / % Extension (Single nt): 2uM RTX-161; for Average % Extension (Single nt): average of 3 trials; for % Extension (Single nt) / % Extension of Control: single trials 1-3; for % Extension of Control: 2uM RTX-161 relative to DMSO
T2 construct: purified recombinant human Polθ-pol (comprising amino acid residues 1792–2590); made in house
T2 sequence (O75417 1792-2590): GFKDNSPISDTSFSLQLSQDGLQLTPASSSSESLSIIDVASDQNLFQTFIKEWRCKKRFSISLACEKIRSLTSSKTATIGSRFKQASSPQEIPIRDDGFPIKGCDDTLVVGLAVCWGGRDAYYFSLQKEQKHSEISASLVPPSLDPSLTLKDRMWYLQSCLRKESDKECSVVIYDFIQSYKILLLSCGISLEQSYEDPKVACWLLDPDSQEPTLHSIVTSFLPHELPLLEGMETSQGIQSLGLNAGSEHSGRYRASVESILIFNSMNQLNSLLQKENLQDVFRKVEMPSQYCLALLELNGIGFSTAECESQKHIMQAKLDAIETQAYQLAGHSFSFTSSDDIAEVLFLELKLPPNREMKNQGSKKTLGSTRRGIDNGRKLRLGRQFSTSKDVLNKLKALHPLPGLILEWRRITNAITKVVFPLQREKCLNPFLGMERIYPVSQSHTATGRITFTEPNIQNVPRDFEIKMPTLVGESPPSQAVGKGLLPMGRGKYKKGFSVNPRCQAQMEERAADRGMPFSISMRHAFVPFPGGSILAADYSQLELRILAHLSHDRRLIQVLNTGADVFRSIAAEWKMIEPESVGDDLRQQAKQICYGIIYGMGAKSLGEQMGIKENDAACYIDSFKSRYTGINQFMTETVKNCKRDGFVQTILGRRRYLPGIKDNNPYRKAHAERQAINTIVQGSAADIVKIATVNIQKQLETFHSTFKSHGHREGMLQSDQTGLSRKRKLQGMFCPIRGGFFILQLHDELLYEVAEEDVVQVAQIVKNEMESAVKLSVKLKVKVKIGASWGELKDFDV
Method: Relative rate of Polθ-pol dAMP addition. The relative rates of dAMP incorporation by Polq-pol in the presence of DMSO or MC160385 with various concentrations of dATP were measured using the following primer extension assay in vitro. 2 nM or Polθ-pol was incubated with 5’ ^32P-γ-ATP labeled 100 nM primer-template (RP469D/RP486) in 1X buffer (25 mM TrisHCl pH 7.8, 0.01% NP40, 10% glycerol, 1 mM DTT, 10 mM MgCl2, 0.1 mg/ml BSA) at room temp. 2.5% DMSO, 7.5 nM or 12 nM of MC160385 was added. Reactions were than initiated by the addition of 20, 50, 100, 200, or 300 μM dATP at room temp. Aliquots of the reactions were removed and terminated by the addition of 50 mM EDTA at 3, 3.5, 4 and 5 min after the reaction was initiated. Radio-labeled DNA was then resolved via denaturing 20% PAGE and visualized by Typhoon PhosphorImager (GE Amersham). Rates of dAMP incorporation were calculated from % extension of the prime-template which was determined using ImageJ software. Relative rate of ddCMP addition on DNA/DNA and DNA/RNA. 25 nM nucleic acid DNA/DNA or DNA/RNA primer-template (RP559/RP702 or RP559/RP702R) was mixed with 1X reaction buffer (20 mM TrisHCl pH 7.5, 0.01% NP-40, 0.5 mM DTT, 10% glycerol, 0.1 mg/ml BSA, 10 mM MgCl2) in the presence of 250 μM ddCTP at room temp. Next, 2 μM RTx-161 or 2.5% DMSO was added. Reactions were initiated by the addition of 10 nM Polθ-pol. Reaction aliquots were removed and terminated by the addition of 50 mM EDTA at the indicated time points. Radio-labeled DNA was then resolved via denaturing 20% PAGE and visualized by Typhoon PhosphorImager. Percent primer extension by single ddCMP addition at each time point was calculated from % extension of the prime-template which was determined using ImageJ software.

Structure (SMILES): CN(C(=O)Oc1c(N2CCN(CCO)C2=O)cc(C(F)(F)F)cc1C(F)(F)F)c1ccc(F)cc1 [RTx-161]
- % Full Extension (Pol Eta; Pol Eta): 78.72%
- % Inhibition Compared to Control (Pol Eta; Pol Eta): -2.54%
- % Relative Maximum Extension (Pol Eta; Pol Eta): 102.54%
- inhibition of primer extension (Pol Eta; selectivity panel, Pol named in Supplementary Fig. 1h): no inhibition
- inhibition of single nucleotide incorporation on DNA/RNA (Polθ-pol on DNA/RNA; 2 μM RTx-161, open conformation): failed to significantly inhibit
- Average % Extension (Single nt) (Polθ-pol on DNA/RNA; Time 0): 0.00%
- % Extension (Single nt) (Polθ-pol on DNA/RNA; Time 0): 0.00%
- Average % Extension (Single nt) (Polθ-pol on DNA/RNA; Time 5): 4.59%
- % Extension (Single nt) (Polθ-pol on DNA/RNA; Time 5): 2.50% and 5.50% and 5.76%
- Average % Extension (Single nt) (Polθ-pol on DNA/RNA; Time 10): 7.95%
- % Extension (Single nt) (Polθ-pol on DNA/RNA; Time 10): 4.80% and 9.47% and 9.59%
- Average % Extension (Single nt) (Polθ-pol on DNA/RNA; Time 20): 16.13%
- % Extension (Single nt) (Polθ-pol on DNA/RNA; Time 20): 15.85% and 16.30% and 16.24%
- Average % Extension (Single nt) (Polθ-pol on DNA/RNA; Time 40): 27.98%
- % Extension (Single nt) (Polθ-pol on DNA/RNA; Time 40): 29.57% and 26.15% and 28.23%
- % Extension of Control (Polθ-pol on DNA/RNA; Time 5): 47.30% and 65.75% and 74.39%
- % Extension of Control (Polθ-pol on DNA/RNA; Time 10): 39.83% and 67.79% and 72.59%
- % Extension of Control (Polθ-pol on DNA/RNA; Time 20): 72.60% and 71.13% and 71.98%
- % Extension of Control (Polθ-pol on DNA/RNA; Time 40): 79.52% and 73.56% and 82.47%

From paper PMC10997755, “Discovery of a small-molecule inhibitor that traps Polθ on DNA and synergizes with PARP inhibitors” (Nature Communications, 2024)
